Experimental data taken from paper PMC7504258, “New Hybrids of 4-Amino-2,3-polymethylene-quinoline and p-Tolylsulfonamide as Dual Inhibitors of Acetyl- and Butyrylcholinesterase and Potential Multifunctional Agents for Alzheimer’s Disease Treatment” (Molecules, 2020).

Key:
Equine serum BChE = molecular target: T1, Equine serum BChE (Equus caballus, UniProt P81908); assay: biochemical; conditions: for IC50: mean ± SEM, n = 3, pH 7.5, 25 °C; for Selectivity, S = IC50 AChE/IC50 BChE: ratio IC50 AChE/IC50 BChE
T1 construct: two enzymes of non-human origin: equine serum BChE and porcine liver CES; purchased Sigma-Aldrich; host or cells: equine serum
Method: (§1) All experiments were carried out in accordance with the standard protocols approved by IPAC RAS. Human erythrocyte AChE, equine serum BChE, porcine liver CES, acetylthiocholine iodide (ATCh), butyrylthiocholine iodide (BTCh), 5,5′-dithio-bis-(2-nitrobenzoic acid) (DTNB), and 4-nitrophenol acetate (4-NPA) were purchased from Sigma-Aldrich (Saint Louis, MO, USA).
(§2) AChE and BChE activities were measured by the colorimetric method of Ellman et al.. The assay solution consisted of 0.1 M K/Na phosphate buffer pH 7.5, 25 °C, 0.33 mM DTNB, 0.02 unit/mL AChE or BChE, and 1 mM substrate (ATCh or BTCh, respectively). Reagent blanks consisted of reaction mixtures without substrates.
(§3) An initial evaluation of inhibitory activity of compounds was carried out by determination of the AChE, BChE and CES inhibition at a compound concentration of 20 µM. For this, a sample of the corresponding enzyme was incubated with the test compound for 5 min at 25 °C for temperature equilibration; then the enzyme residual activity was determined. Each experiment was performed in triplicate.
(§4) The test compounds were added to the assay solution and incubated with the enzyme at 25 °C for 5 min (for temperature equilibration) followed by the addition of substrate. A parallel control was made for the assay solution with no inhibitor.
(§5) Measurements were performed in the FLUOStar OPTIMA microplate spectrophotometer (BMG Labtech, Ortenberg, Germany). Each experiment for the IC50 assay was performed in triplicate. The results were expressed as the mean ± SEM. The reaction rates in the presence and absence of inhibitor were compared, and the percent residual enzyme activity due to the presence of test compounds was calculated. IC50 values were determined graphically from inhibition curves (log inhibitor concentration vs. percent residual enzyme activity) using Origin 6.1 software (OriginLab, Northampton, MA, USA).

Human erythrocyte AChE = molecular target: T2, Human erythrocyte AChE (Homo sapiens, UniProt P22303); assay: biochemical; conditions: mean ± SEM, n = 3; pH 7.5, 25 °C
T2 construct: AChE from human erythrocytes was used; purchased Sigma-Aldrich; host or cells: human erythrocytes
Method: as §1, §2, §3, §4, §5

EeAChE PAS = EeAChE PAS (Electrophorus electricus, UniProt O42275); assay: Propidium iodide displacement from the PAS of EeAChE (fluorescence); assay type: binding; conditions: compound concentration 20 µM; mean ± SEM, n = 3
Method: EeAChE was used owing to its high degree of purification, high activity, and lower cost than human AChE (hAChE).
To determine the degree of displacement (% displacement) of propidium from the PAS of AChE, EeAChE (final concentration, 7 μM) was incubated with the test compound at a concentration of 20 μM in 1 mM Tris-HCl buffer pH 8.0, 25 °C, for 15 min. Then, propidium iodide solution (final concentration, 8 μM) was added, the samples were incubated for 15 min and the fluorescence spectrum (530 nm (excitation) and 600 nm (emission)) was taken. […] The blank contained propidium iodide of the same concentration in 1 mM Tris-HCl buffer pH 8.0. The measurements were carried out in triplicate on the FLUOStar Optima microplate reader (BMG Labtech), and the results were calculated by the following formula:% Displacement = 100 − (IFAChE+ Propidium + inhibitor/IFAChE + Propidium) × 100(1) where IFAChE + Propidium is the fluorescence intensity of the propidium associated with AChE in the absence of the test compound (taken as 100%), and IFAChE + Propidium + inhibitor is the fluorescence intensity of the propidium associated with AChE in the presence of the test compound.

Porcine liver CES = assay: CES inhibition (4-nitrophenyl acetate hydrolysis); assay type: biochemical; conditions: inhibition at compound concentration 20 µM; mean ± SEM, n = 3
Method: as §1
Final enzyme and substrate (4-nitrophenyl acetate) concentrations were 0.02 unit/mL and 1 mM, respectively. Assays were carried out with a blank containing all constituents except porcine CES to assess non-enzymatic hydrolysis.
as §3, §4, §5

AChE = molecular target: T3, AChE (Homo sapiens, UniProt P22303); assay: Kinetic study of AChE inhibition, steady-state inhibition constants; assay type: biochemical; conditions: for Type of AChE inhibition: changes in both Km and Vmax
T3 construct: AChE from human erythrocytes was used; purchased Sigma-Aldrich; host or cells: human erythrocytes
Method: (§6) • Kinetic Study of AChE and BChE Inhibition. Determination of Steady-State Inhibition Constants
(§7) Mechanisms of AChE and BChE inhibition were assessed via a thorough analysis of enzyme kinetics. Residual activity was measured following 5 min incubation at 25 °C (for temperature equilibration) with three increasing concentrations of inhibitor and six decreasing substrate concentrations. Substrate was added immediately after the 5 min incubation with inhibitor and the rates of absorption were monitored at 412 nm using the FLUOStar OPTIMA (BMG Labtech) microplate spectrophotometer. Inhibition constants Ki (competitive component) and αKi (noncompetitive component) were determined by linear regression of 1/V versus 1/[S] double-reciprocal (Lineweaver-Burk) plots using Origin 6.1 software. Data were expressed as mean ± SEM (n = 3 experiments).

BChE = molecular target: T4, BChE (Equus caballus, UniProt P81908); assay: Kinetic study of BChE inhibition, steady-state inhibition constants; assay type: biochemical
T4 construct: two enzymes of non-human origin: equine serum BChE and porcine liver CES; purchased Sigma-Aldrich; host or cells: equine serum
Method: as §6, §7

[1] = test system: AChE-induced Aβ aggregation; conditions: at 100 µM; cited from earlier work

T2 sequence (P22303 other isoform, or with tags, fused parts or gaps): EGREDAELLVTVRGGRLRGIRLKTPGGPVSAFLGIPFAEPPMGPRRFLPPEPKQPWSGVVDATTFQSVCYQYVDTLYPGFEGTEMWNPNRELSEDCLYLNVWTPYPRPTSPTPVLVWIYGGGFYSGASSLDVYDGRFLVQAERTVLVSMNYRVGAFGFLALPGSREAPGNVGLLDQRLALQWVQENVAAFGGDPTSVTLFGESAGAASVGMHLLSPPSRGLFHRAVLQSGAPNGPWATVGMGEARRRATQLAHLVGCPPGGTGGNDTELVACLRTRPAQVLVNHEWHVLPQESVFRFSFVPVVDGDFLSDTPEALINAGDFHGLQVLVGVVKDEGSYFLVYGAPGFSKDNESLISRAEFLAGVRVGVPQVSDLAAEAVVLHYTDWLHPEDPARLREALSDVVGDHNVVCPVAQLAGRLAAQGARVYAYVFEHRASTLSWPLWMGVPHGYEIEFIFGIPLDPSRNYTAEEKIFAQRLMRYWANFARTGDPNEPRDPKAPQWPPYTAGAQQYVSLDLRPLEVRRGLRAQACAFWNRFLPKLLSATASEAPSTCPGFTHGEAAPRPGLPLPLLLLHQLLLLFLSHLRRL
T3 sequence (P22303 other isoform, or with tags, fused parts or gaps): as above
T1 sequence (P81908 whole entry): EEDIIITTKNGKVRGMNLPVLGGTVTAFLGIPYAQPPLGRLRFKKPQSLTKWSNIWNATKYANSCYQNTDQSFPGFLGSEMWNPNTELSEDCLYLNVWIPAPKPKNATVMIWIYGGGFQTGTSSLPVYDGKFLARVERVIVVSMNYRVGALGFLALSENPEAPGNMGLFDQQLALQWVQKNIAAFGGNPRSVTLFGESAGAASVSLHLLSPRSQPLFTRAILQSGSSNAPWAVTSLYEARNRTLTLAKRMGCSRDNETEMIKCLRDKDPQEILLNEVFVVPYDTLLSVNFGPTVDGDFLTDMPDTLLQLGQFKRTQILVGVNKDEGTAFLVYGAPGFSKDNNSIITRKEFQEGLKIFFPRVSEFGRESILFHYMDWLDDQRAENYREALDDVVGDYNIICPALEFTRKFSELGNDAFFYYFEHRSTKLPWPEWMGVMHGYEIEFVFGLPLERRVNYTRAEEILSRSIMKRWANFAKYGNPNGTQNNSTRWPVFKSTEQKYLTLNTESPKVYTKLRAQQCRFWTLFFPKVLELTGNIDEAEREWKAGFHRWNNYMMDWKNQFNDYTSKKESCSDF
T4 sequence (P81908 whole entry): as above
Chain of EeAChE PAS (O42275 24-633): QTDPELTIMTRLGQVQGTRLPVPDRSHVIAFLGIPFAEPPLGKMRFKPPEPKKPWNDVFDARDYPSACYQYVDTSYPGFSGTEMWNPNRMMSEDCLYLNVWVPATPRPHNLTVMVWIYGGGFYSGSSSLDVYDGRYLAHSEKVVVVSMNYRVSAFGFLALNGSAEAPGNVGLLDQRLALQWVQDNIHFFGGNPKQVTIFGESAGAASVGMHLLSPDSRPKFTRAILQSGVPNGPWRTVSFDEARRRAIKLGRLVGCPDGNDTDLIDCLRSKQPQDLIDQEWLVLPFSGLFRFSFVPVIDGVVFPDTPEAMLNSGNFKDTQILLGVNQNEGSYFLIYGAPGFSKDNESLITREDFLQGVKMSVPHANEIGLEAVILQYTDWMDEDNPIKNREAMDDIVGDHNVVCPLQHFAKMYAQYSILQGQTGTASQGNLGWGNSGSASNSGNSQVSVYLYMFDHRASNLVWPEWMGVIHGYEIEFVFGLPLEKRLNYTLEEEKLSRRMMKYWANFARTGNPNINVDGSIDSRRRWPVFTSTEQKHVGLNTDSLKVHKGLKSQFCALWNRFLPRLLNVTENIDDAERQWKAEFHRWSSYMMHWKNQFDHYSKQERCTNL

Structure (SMILES) | IC50 (Equine serum BChE) [nM] | Selectivity, S = IC50 AChE/IC50 BChE (Equine serum BChE) | IC50 (Human erythrocyte AChE) [nM] | Displacement of Propidium from the EeAChE PAS (EeAChE PAS) [%] | Porcine Liver CES, (%) (Porcine liver CES) | αKi (noncompetitive component), AChE (AChE; Lineweaver-Burk analysis) [µM] | Ki (AChE; Lineweaver-Burk analysis, read-out: Ki (competitive component), AChE) [nM] | Type of AChE inhibition (AChE) | αKi (noncompetitive component), BChE (BChE; Lineweaver-Burk analysis) [µM] | Ki (BChE; Lineweaver-Burk analysis, read-out: Ki (competitive component), BChE) [nM] | Type of BChE inhibition (BChE; changes in both Km and Vmax) | decrease in AChE-induced Aβ aggregation [1] [%]
Cc1ccc(S(=O)(=O)NCCNc2c3c(nc4ccccc24)CCC3)cc1 [7a, N-(2-(2,3-Dihydro-1H-cyclopenta[b]quinolin-9-ylamino)-ethyl)-4-methyl-benzenesulfonamide] | 924 ± 31 | 9.8 | 9030 ± 640 | 9.2 ± 1.0 | 11.9 ± 1.5 | – | – | – | – | – | – | –
Cc1ccc(S(=O)(=O)NCCCNc2c3c(nc4ccccc24)CCC3)cc1 [7b, N-(3-(2,3-Dihydro-1H-cyclopenta[b]quinolin-9-ylamino)-propyl)-4-methyl-benzenesulfonamide] | 327 ± 4 | 23.7 | 7760 ± 610 | 12.3 ± 1.1 | 8.1 ± 0.6 | – | – | – | – | – | – | –
Cc1ccc(S(=O)(=O)NCCCCNc2c3c(nc4ccccc24)CCC3)cc1 [7c, N-(4-(2,3-Dihydro-1H-cyclopenta[b]quinolin-9-ylamino)-butyl)-4-methyl-benzenesulfonamide] | 578 ± 25 | 3.6 | 2080 ± 80 | 14.9 ± 1.2 | 9.0 ± 0.1 | – | – | – | – | – | – | –
Cc1ccc(S(=O)(=O)NCCCCCNc2c3c(nc4ccccc24)CCC3)cc1 [7d, N-(5-(2,3-Dihydro-1H-cyclopenta[b]quinolin-9-ylamino)-pentyl)-4-methyl-benzenesulfonamide] | 459 ± 44 | 4.3 | 1970 ± 50 | 15.1 ± 1.4 | 29.6 ± 1.2 | – | – | – | – | – | – | –
Cc1ccc(S(=O)(=O)NCCCCCCNc2c3c(nc4ccccc24)CCC3)cc1 [7e, N-(6-(2,3-Dihydro-1H-cyclopenta[b]quinolin-9-ylamino)-hexyl)-4-methyl-benzenesulfonamide] | 209 ± 8 | – | 4000 ± 90 | 15.9 ± 1.3 | 18.6 ± 0.2 | – | – | – | – | – | – | –
Cc1ccc(S(=O)(=O)NCCCNc2c3c(nc4ccccc24)CCCC3)cc1 [7f, 4-Methyl-N-(3-(1,2,3,4-tetrahydro-acridin-9-ylamino)-propyl)-benzenesulfonamide] | 110 ± 5 | 17.1 | 1880 ± 30 | 9.8 ± 0.8 | 2.0 ± 0.8 | – | – | – | – | – | – | –
Cc1ccc(S(=O)(=O)NCCCCNc2c3c(nc4ccccc24)CCCC3)cc1 [7g, 4-Methyl-N-(4-(1,2,3,4-tetrahydro-acridin-9-ylamino)-butyl)-benzenesulfonamide] | 61.7 ± 0.3 | 10.8 | 668 ± 170 | 14.8 ± 1.3 | 17.1 ± 1.4 | 1.09 ± 0.02 | 390 ± 8 | mixed type of inhibition | 0.117 ± 0.002 | 23.5 ± 0.2 | mixed type of inhibition | –
Cc1ccc(S(=O)(=O)NCCCCCNc2c3c(nc4ccccc24)CCCC3)cc1 [7h, 4-Methyl-N-(5-(1,2,3,4-tetrahydro-acridin-9-ylamino)-pentyl)-benzenesulfonamide] | 68 ± 1.4 | 1.9 | 131 ± 10 | 17.5 ± 1.5 | 6.7 ± 0.8 | – | – | mixed-type AChE inhibitor | – | – | – | –
Cc1ccc(S(=O)(=O)NCCCNc2c3c(nc4ccccc24)CCCCC3)cc1 [7i, 4-Methyl-N-(3-(7,8,9,10-tetrahydro-6H-cyclohepta[b]quinolin-11-ylamino)-propyl)-benzenesulfonamide] | 43.1 ± 1.1 | 64.0 | 2760 ± 40 | 13.9 ± 1.3 | 1.9 ± 0.9 | – | – | – | – | – | – | –
Cc1ccc(S(=O)(=O)NCCCCNc2c3c(nc4ccccc24)CCCCC3)cc1 [7j, 4-Methyl-N-(4-(7,8,9,10-tetrahydro-6H-cyclohepta[b]quinolin-11-ylamino)-butyl)-benzenesulfonamide] | 78.8 ± 6 | 14.7 | 1160 ± 30 | 16.1 ± 1.4 | 10.3 ± 0.8 | – | – | – | – | – | – | –
Cc1ccc(S(=O)(=O)NCCCNc2c3c(nc4ccccc24)CCCCCC3)cc1 [7k, N-(3-(6,7,8,9,10,11-Hexahydro-cycloocta[b]quinolin-12-ylamino)-propyl)-4-methyl-benzenesulfonamide] | 461 ± 7 | 24.1 | 11100 ± 200 | 15.9 ± 1.7 | 5.2 ± 1.5 | – | – | – | – | – | – | –
O=[N+]([O-])c1ccc(OP(=O)(O)Oc2ccc([N+](=O)[O-])cc2)cc1 [BNPP, bis-4-nitrophenyl phosphate, reference compound] | – | – | – | – | 1.80 ± 0.11 | – | – | – | – | – | – | –
CC[N+](C)(CC)CCC[n+]1c(-c2ccccc2)c2cc(N)ccc2c2ccc(N)cc21 [Propidium] | – | – | – | – | – | – | – | – | – | – | – | 82
